Tests used:
[1] = system: muscarinic cholinergic receptor; experiment: pharmacological studies, muscarinic cholinergic receptor activity
5-HT1C receptor = target: T1, 5-HT1C receptor (Homo sapiens, UniProt P28335); experiment: pharmacological studies, 5-HT1C receptor activity
T1 sequence (P28335 33-458): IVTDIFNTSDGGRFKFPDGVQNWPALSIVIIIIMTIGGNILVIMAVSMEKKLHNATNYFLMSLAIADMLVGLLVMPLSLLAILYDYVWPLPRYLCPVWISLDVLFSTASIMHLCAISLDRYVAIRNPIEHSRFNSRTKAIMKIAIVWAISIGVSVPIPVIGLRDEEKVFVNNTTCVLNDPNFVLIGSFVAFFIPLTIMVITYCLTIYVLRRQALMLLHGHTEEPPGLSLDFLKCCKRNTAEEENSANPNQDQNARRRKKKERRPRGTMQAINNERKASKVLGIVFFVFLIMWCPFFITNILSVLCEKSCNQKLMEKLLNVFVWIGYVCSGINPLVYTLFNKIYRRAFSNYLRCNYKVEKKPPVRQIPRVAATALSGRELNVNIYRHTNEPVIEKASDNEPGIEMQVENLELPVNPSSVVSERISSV

[2] = system: ischemia-induced neuronal cell damage (CA1 pyramidal cell layer of the hippocampus); experiment: Cerebral Ischemia Model in Rats; assay type: in vivo, Male Wistar rats; conditions: "such experiments"; the sentence does not name a specific test
From the text: Cerebral ischemia is produced in rats by occluding the four arteries that supply blood to the brain according to the following procedure. Male Wistar rats are anesthetized with Metofane and placed into a stereotaxic instrument. A longitudinal incision is made on the dorsal surface of the neck. The neck muscles are reflected to expose the dorsal surface of the spinal column. The two vertebral arteries are exposed where they pass through the first cervical vertebra. Both arteries are permanently occluded by the application of electrocautery. After coagulation of the vertebral arteries, the rat is removed from the stereotaxic instrument and the surgical wound is sutured. Two longitudinal incisions are then made on the ventral surface of the neck. The two common carotid arteries are exposed and dissected free from surrounding nerves and connective tissue. An atraumatic clasp, fabricated mainly from silicone rubber tubing, is placed around each carotid artery in a manner such that the vessel is not traumatized or occluded. An indwelling jugular cannula is implanted into each rat for drug delivery. The surgical wounds are then closed. […]
Damage in 4 sections of the dorsal hippocampus from each brain is assessed in order to obtain an accurate estimate of damage. An average damage score is calculated for each treatment group. […] The level of significance is determined using the Mann Whitney-U-test.

[3] = system: formation of lipid peroxides; experiment: Lipid Peroxidation Test; conditions: test protocol of Aruoma, et al. (1990)

## Cc1cc2c(s1)Nc1ccccc1N=C2N1CCN(C)CC1 [olanzapine, 2-methyl-4-(4-methyl-1-piperazinyl)-10H-thieno[2,3-b] [1,5] benzodiazepine]
[1]
  muscarinic cholinergic receptor activity: has muscarinic cholinergic receptor activity
5-HT1C receptor
  activity at the 5-HT1C receptor: active
[2]
  neuro-protective effect: significant neuro-protective effect
[3]
  inhibition of the formation of lipid peroxides: inhibit the formation of lipid peroxides

From US20030022889A1, “Method for providing neuro-protective effects” (priority 1997, published 2003)
